Key:
[1] = test system: LOX human melanoma xenograft tumors; assay: LOX xenograft tumor growth in SCID mice; format: in vivo; conditions: i.p., 72 mg/kg total dose
Protocol: (§1) In brief, female athymic nude mice or female SCID mice (4-6 week old) from Charles River Laboratories were maintained in a VAF-barrier facility. Animal procedures were performed in accordance with the rules set forth in the N.I.H. guide for the care and use of laboratory animals.
(§2) DAOY human medulloblastoma cells (5×10^6), U373 human glioma cells (5×10^6), LOX human melanoma cells (5×10^5), and A375 human melanoma cells (5×10^6) were inoculated subcutaneously in the right flank of the animal (LOX in SCID mice; DAOY, U373, and A375 in nude mice). To facilitate in vivo growth, Matrigel was mixed with DAOY and A375 cells (50%) before inoculation. When tumor volumes were approximately 100 mm^3, animals were randomized and grouped (n=10 LOX, DAOY, and A375; n=9 U373). Tumor volumes and body weight were measured twice weekly using Labcat™ computer application (Innovative Programming Associates, N.J.). Tumor volumes were calculated by the formula (W×L×H)×π×⅙. TMZ was administered by intraperitoneal injections with 20% HPβCD (containing 1% DMSO) as vehicle.
Mice bearing xenograft tumors of LOX human melanoma cells, a low MGMT level cell line, were treated with TMZ using two different schedules. The same total dose was administered evenly divided over the course of either: (i) 4 or (ii) 12 days. […]

[2] = test system: U373 human glioma xenograft tumors; assay: U373 xenograft tumor growth in nude mice; format: in vivo; conditions: i.p.
Protocol: as §1, §2
Mice bearing xenograft tumors of U373 human glioma cells, a high MGMT level cell line, were treated with TMZ for 5 consecutive days (day 1 through day 5) over a cycle that is at least a 28-day cycle. […]

**Q.** How did the TGI ([1]; 4-day treatment schedule (Day 1-4)) turn out when `Cn1nnc2c(C(N)=O)ncn2c1=O` [TMZ, 3,4-dihydro-3-methyl-4-oxoimidazo[5,1-d]-as-tetrazine-8-carboxamide] was run?
**A.** 88%

**Q.** What about the TGI ([1]; 12-day schedule (Day 1-12)) of the same compound?
**A.** 50%

**Q.** And the TGI ([2]; 35 mg/kg for 5 consecutive days (175 mg/kg total))?
**A.** 100%

**Q.** And the TGI ([2]; 70 mg/kg for 5 consecutive days (350 mg/kg total))?
**A.** 113%
